{"source": "patent US20240090503A1", "about": "“FUNGICIDAL OXADIAZOLES AND THEIR MIXTURES” (FMC CORPORATION, priority 2020, published 2024)", "key": {"[1]": {"system": "Zymoseptoria tritici (the causal agent of wheat leaf blotch)", "experiment": "Test B: preventive spray on wheat seedlings, wheat leaf blotch, visual disease rating", "format": "in vivo", "settings": "Zymoseptoria tritici, 456 h; 250 ppm test suspension; wheat seedlings; 100 = 100% disease control", "how_it_was_run": "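This is a preventive test: spray application preceded Zymoseptoria tritici spore inoculation by one day. Test suspensions were in acetone/water with 250 ppm PEG400 surfactant, at the listed ppm rate. After 48 h saturated humidity at 24° C and 17 days at 20° C, visual ratings scored control from 0 to 100%.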"}, "[2]": {"system": "Phakopsora pachyrhizi (the causal agent of Asian soybean rust)", "experiment": "Test A: preventive spray on soybean seedlings, Asian soybean rust, visual disease rating", "format": "in vivo", "settings": "Phakopsora pachyrhizi, 216 h; 250 ppm test suspension; soybean seedlings; 100 = 100% disease control, 0 = no control", "how_it_was_run": "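Preventive test: soybean seedlings received a run-off spray of compound suspended at the set ppm in 50/50 acetone/water plus 250 ppm PEG400, and one day later a P. pachyrhizi spore inoculum. Visual scoring (0 none to 100 full disease control) followed 24 h saturated incubation and 8 days' growth chamber, both at 22° C.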"}, "[3]": {"system": "Phakopsora pachyrhizi (the causal agent of Asian soybean rust)", "experiment": "Test E: compounds alone and mixtures sprayed on soybean seedlings, Asian soybean rust, observed and Colby-expected disease control", "format": "in vivo", "settings": "Phakopsora pachyrhizi, read-out: Test E Obsd", "how_it_was_run": "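Soybean seedlings were sprayed to run-off with compounds or mixtures in ppm. Technical materials were applied in acetone/water with 250 ppm Trem 014; formulated products were applied in water. Plants were inoculated with Phakopsora pachyrhizi spores the next day, held 24 h saturated at 22° C, then 8 days at 22° C. Visual % disease control is the mean of four plants, and Colby-expected values are given for mixtures.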"}, "[4]": {"system": "Puccinia recondita f. sp. tritici (the causal agent of wheat leaf rust)", "experiment": "Test C: preventive spray on wheat seedlings, wheat leaf rust, visual disease rating", "format": "in vivo", "settings": "Puccinia recondita, 168 h; 250 ppm test suspension; wheat seedlings; 100 = 100% disease control, 0 = no control", "how_it_was_run": "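Wheat seedlings sprayed to run-off with compound in acetone/water (50/50) with 250 ppm PEG400, then inoculated with spores the following day. After 24 h saturated humidity at 20° C. and 6 days in growth chamber at 20° C., disease rated visually as % control relative to untreated controls.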"}}, "note": "Like-named read-outs stand apart in the source and are kept apart here."}
{"smiles": "COCCNC(=O)c1noc(Cc2ccc(-c3noc(C(F)(F)F)n3)cc2)n1", "note": "[Compound 511, N-(2-methoxyethyl)-5-[[4-[5-(trifluoromethyl)-1,2,4-oxadiazol-3-yl]phenyl]methyl]-1,2,4-oxadiazole-3-carboxamide]", "values": [{"measurement": "pest or weed control at 250 ppm", "setting": "[1]", "value": 90, "unit": "%"}, {"measurement": "pest or weed control at 250 ppm", "setting": "[2]", "value": 100, "unit": "%"}, {"measurement": "melting point", "value": "80 to 85", "unit": "°C"}, {"measurement": "pest or weed control at 2.436 ppm", "setting": "[3]; Compound 511 alone", "value": 21, "unit": "%"}, {"measurement": "pest or weed control at 4.926 ppm", "setting": "[3]; Compound 511 alone", "value": 68, "unit": "%"}, {"measurement": "pest or weed control at 2.436 ppm", "setting": "[3]; applied alone", "value": 40, "unit": "%"}, {"measurement": "pest or weed control at 4.926 ppm", "setting": "[3]; applied alone", "value": 66, "unit": "%"}, {"measurement": "pest or weed control at 250 ppm", "setting": "[4]", "value": 100, "unit": "%"}]}
